Data as given in patent publication US6028222A (priority 1996, dated 2000).
Several values for one entry are separate records, joined by “and”; a condition that tells them apart may be missing. Identical values can stand only once.

Columns and labels:
[1] = system: extensor digitorum longus muscle; experiment: Muscular tolerance (creatine kinase release from isolated muscle); parameters: species or system Sprague-Dawley rats; details: for creatine kinase activity: 15 μl injected
Procedure: The pH of this solution was not adjusted. Apparent pH is equal to 7,6.
Sprague-Dawley rats, weighing between 260 g and 450 g were anesthesized with an i.p. injection of ethyl carbamate (2 ml/kg of a 50% aqueous solution). The extensor digitorum longus muscle was dissected from the right or left hind leg, and placed in buffer medium having the following composition:
The muscle is transiently fixed to a board and maintained in position by tendons. The test product was injected in an amount of 15 μl by means of a 25 μl-capacity Hamilton seringe no 702. The muscle is then placed over a grit and immersed in the buffer solution kept at 37° C. with carbogen bubbling throughout the incubation period. At 30 minutes intervals, the muscles were introduced in a tube containing fresh buffer at 37° C. The procedure was repeated 4 times.
Creatine kinase was measured using a Hitachi 704 model analyzer in conjunction with a reagent kit sold under tradename high performance Enzyline CK NAC 10 (Biomerieux).

[2] = Stabilization of dilute paracetamol solution by free radical scavengers (formulation B and C); format: physicochemical; details: for Solution appearance, color / Dosage of paracetamol (in % of theoretical volume): 124° C. 7 minutes, 48 hours room temperature dark
Procedure: (§1) The solutions thus prepared were divided in 10 ml, 100 ml or 80 ml capacity vials, stoppered with a Bromobutyl stopper and capped with an aluminium cap. The preparation was examined for any pink color development.

[3] = Paracetamol instability in solution and breakdown products; format: physicochemical; details: aqueous or partially aqueous solutions
[4] = HPLC assay of paracetamol and codein before and after autoclaving; details: for assay, after sterilization: 121° C. 20 minutes
[5] = Stabilization of concentrated paracetamol solution by free radical scavengers; format: physicochemical; details: 1 mg/ml
Procedure: The solutions thus prepared are divided in 10 ml capacity vials, stoppered with a Bromobutyl stopper and capped with an aluminium cap. After autoclaving at 121° C. for 20 minutes, the vials were stored for 48 hours, either in the presence of actinic light at 5500° K. at room temperature or at 70° C. in the dark. The preparation was examined for any change in color.

[6] = Stabilization of dilute paracetamol + codein phosphate solution by free radical scavengers; format: physicochemical; details: 0.5 mg/ml; 48 hours
Procedure: The solutions thus prepared were divided in 10 ml capacity vials, stoppered with a Bromobutyl stopper and capped with an aluminium cap. […] The preparation was examined for any change in color.

[7] = toxic metabolite of paracetamol; cited from earlier work
[8] = Stabilization of dilute paracetamol solution by free radical scavengers (formula A); format: physicochemical; details: 0.5 mg/ml; 48 hours
Procedure: as §1
After autoclaving at 121° C. for 20 minutes, the vials were stored for 48 hours, either in the presence of actinic light at 5500° K. at room temperature or at 70° C. in the dark (formula A).

[9] = containing 0.5 mg/ml of cystein hydrochloride
[10] = no free radical scavenger added

## Triton-X
[1]; 30 min
  creatine kinase activity: 1802 ± 2114 IU/l
[1]; 60 min
  creatine kinase activity: 1716 ± 978 IU/l
[1]; 90 min
  creatine kinase activity: 155 ± 89 IU/l
[1]; 120 min
  creatine kinase activity: 289 ± 251 IU/l
[1]; Total of 30-120 min
  creatine kinase activity, Total: 14962 IU/l

## Cl.N[C@@H](CS)C(=O)O.O [Cystein hydrochloride monohydrate]
[2]; 0.2 mg/ml
  Solution appearance, color: colorless
[2]; 0.5 mg/ml
  Solution appearance, color: colorless
[2]; C.R.L. 0.2 mg/ml
  Dosage of paracetamol (in % of theoretical volume): 99.2%
[2]; C.R.L. 0.5 mg/ml
  Dosage of paracetamol (in % of theoretical volume): 99.6%
[2]; dilute paracetamol solution, 2880 min, hydrochloride monohydrate
  Dosage of C.R.L. (in % of theoretical volume): 80% and 95%

## Nc1ccc(O)cc1 [p-aminophenol]
[3]
  p-aminophenol during storage: not detected

## Glucose
[2]; 50 mg/ml
  Solution appearance, color: colorless

## COc1ccc2c3c1O[C@H]1[C@@H](O)C=C[C@H]4[C@@H](C2)N(C)CC[C@@]341 [codein]
[4]; [9]
  assay, non sterilized solution: 0.00042 g/mL
  assay, after sterilization: 0.00042 g/mL
[4]; [10]
  assay, non sterilized solution: 0.00043 g/mL
  assay, after sterilization: 0.00042 g/mL

## OCC(O)CS (stereo not drawn) [α-monothioglycerol]
[5]; 48 hours actinic light
  Appearance upon exposure to light, color intensity: colorless
[5]; 48 hours, dark
  Appearance at 70° C., color intensity: colorless
[6]
  color at 70° C.: grey
  color upon exposure to light: grey

## CC(=O)N=C1C=CC(=O)C=C1 [N-acetyl-p-benzoquinone-imine]
[7]
  toxic effect: cytotoxic and hemolytic effect

## NC(N)=S [Thiourea]
[8]
  color at 70° C.: colorless
  color upon exposure to light: colorless
